# “Also recorded” adds a separate entry of the source.
# Columns and labels:
# [1] = system: ACAT; test: Cholesterol determinations in non-transgenic mice given 21 day-release CP-113,818 pellets; format: in vivo; conditions: 21 days
# Excerpt: hAPP transgenic mice overexpress human APP751 with the London (V717I) and Swedish (K670M/N671L) mutations under the regulatory control of the neuron specific murine (m)Thy-1 promoter (mThy-1-hAPP751; heterozygous with respect to the transgene, on a C57BL/6 F3 background) (Rockenstein et al., 2001). The hAPP colony was sustained by crossing transgenic APP751 with C57BL/6 (Harlan Winkelman, Germany). Corresponding littermates were used for control studies. All mice were housed according to standard animal care protocols, fed ad libitum with standard chow diet, and maintained in a pathogen-free environment in single ventilated cages at JSW Research. The transgenic status of each animal was confirmed by real time PCR of tail snips using specific primers and the appropriate hybridization probe. A modified Irvine test was regularly performed prior to the experiment to assess the neurological status of the animals; those showing disturbances were excluded from the experiments. Mice were then randomly assigned to different treatment groups and individually coded. Investigators performing behavioral testing, biochemical analyzes and histomorphological evaluations of the brains were blinded in terms of group allocation of the mice. CP-113,818, a potent inhibitor of both ACAT1 and ACAT2 (Chang et al., 2000), was graciously provided by Dr. James Harwood, Pfizer (Groton, Conn.). The drug was compounded in release pellets for continuous dosing by Innovative Research of America (Sarasota, Fla.). Only the test compound, but not carrier biopolymers and substances in the pellets, are released into the bloodstream. Pellets were generated to provide either 21 day or 60 days of continuous drug delivery. For implantation of pellets, animals were anesthized with isofluorance. Then, sterile pellets containing either CP-113,818 or placebo were implanted subcutaneously along the anterolateral aspect of the left shoulder with a special precision trocar in accordance with the suppliers instructions.
# Tissues were homogenized in the presence of trypsin (10 mg/ml) in a Dounce homogenizer on ice. Protein concentration of the homogenate was determined using the BCA protein assay kit (Pierce). The tissue homogenate was extracted in chloroform:methanol (2:1, v/v) overnight. Before drying the chloroform phase, polyoxyethylene-9-lauryl ether (Sigma; 5 μl/ml of extract) was added. Dried lipid pellets were dissolved in water and total amount of cholesterol was determined with an enzymatic assay (Sigma; cat. no. 402-20). As control, free cholesterol was determined with a different enzymatic assay (R-Biopharm GmbH, Darmstadt, Germany; cat. no. E0139050). The amount of cholesteryl-esters was calculated by subtracting free from total cholesterol. Finally, the values were normalized to protein concentration of the tissue homogenate and expressed in mg of cholesterol per g of protein.
# CP-113,818 is a fatty-acid anilide derivative designed to mimic the acyl-CoA substrate of ACAT and a potent ACAT inhibitor in vitro, cell culture, and animals (Chang et al., 2000; Marzetta et al., 1994; Puglielli et al., 2001). In order to determine the in vivo efficacy of CP-113,818 in reducing mouse brain cholesteryl-ester levels, we initially treated non-transgenic animals with the ACAT inhibitor. Most ACAT inhibitors are poorly absorbed when administered orally, and are quickly turned over in the blood or tissues (Marzetta et al., 1994). […]
# [2] = system: synaptophysin; test: Synaptophysin immunoreactivity in hippocampal CA1 region; format: in vivo, mouse; conditions: CA1 layer of hippocampus, hAPP mice, vs placebo
# Description: For histomorphological analyses, 8 to 15 histological sections (10 μm) were prepared from one hemisphere of 12 animals (6 placebo, 6 CP-113,818; 3 male, 3 female per group). Number and surface area of amyloid plaques were evaluated in both cortex and hippocampus. 6E10 (Signet; 1:5000; monoclonal) as primary antibody, and Cy™3 fluorescent goat anti-mouse IgG as secondary antibody (Jackson Immuno Research) were used for Aβ staining. Sections of the same brains were also used for synaptophysin staining (Chemicon; 1:5000; monoclonal). Synaptophysin immunoreactive spots were counted by light microscopy in the hippocampal CA1 region. The estimation of immunohistochemical reactions was done by computer-assisted quantification (IMAGE PRO PLUS, Media Cybernetics).
# [3] = molecular target: T1, purified recombinant human BACE1 (Homo sapiens, UniProt P56817); test: In vitro fluorometric BACE1 activity assay; format: biochemical; conditions: increasing amounts of compound, 2 hours
# T1 construct: purchased R&D systems
# T1 sequence (P56817 46-501): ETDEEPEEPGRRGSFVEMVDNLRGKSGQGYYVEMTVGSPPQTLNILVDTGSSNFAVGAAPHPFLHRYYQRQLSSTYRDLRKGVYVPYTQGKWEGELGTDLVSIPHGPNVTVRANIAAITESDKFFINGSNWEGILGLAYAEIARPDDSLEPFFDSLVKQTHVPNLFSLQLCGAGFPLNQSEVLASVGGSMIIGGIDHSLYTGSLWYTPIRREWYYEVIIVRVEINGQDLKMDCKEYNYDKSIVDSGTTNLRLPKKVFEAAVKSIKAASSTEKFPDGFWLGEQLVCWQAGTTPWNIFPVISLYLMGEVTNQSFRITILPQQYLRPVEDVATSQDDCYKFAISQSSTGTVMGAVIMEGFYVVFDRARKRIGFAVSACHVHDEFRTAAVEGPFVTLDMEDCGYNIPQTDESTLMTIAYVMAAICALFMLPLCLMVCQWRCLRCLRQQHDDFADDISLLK
# Description: A fluorometric β-secretase activity kit was used for detecting BACE1 activity in vitro. Reaction was done according to the manufacturer's instructions with slight modifications. Briefly, 1 μg of purified recombinant human BACE1 (R&D systems) was resuspended in 10 μl of 1× cell extraction buffer (R&D systems) and incubated with EDANS/DABCYL-[…] substrate peptide in the absence or presence of indicated account of CP-113,818 for 2 hours. Released EDANS fluorescence was measured by a fluorescent plate reader (Analyst AD, LJL Biosystems). As a negative control, a specific β-secretase inhibitor, GL-189 (Calbiochem) was added to one of the samples with the indicated concentration.
# [4] = 7.1 mg/kg/day, subcutaneous pellet, vs placebo
smiles,measurement,setting,value
"CCCCCCCC[C@H](SCCCCCC)C(=O)Nc1c(SC)cc(C)nc1SC [CP-113,818]",effect on food consumption and body weight,[1]; 7.1 mg/kg per day,absence of any evident effect
same,reduction of cholesteryl-ester levels in the brain,[1]; [4],86%
same,reduction of total cholesterol in the serum,[1]; [4],29%
same,decrease of free or membrane cholesterol in the liver,"[1]; 0.2-7.1 mg/kg/day, dose-dependent",up to 37%
same,effect on free cholesterol levels in the brain,[1],no effect
same,synaptic density as synaptophysin immunoreactivity,[2],did not induce significant changes; also recorded: unchanged
same,effect on BACE1 activity in vitro,[3],unaffected; also recorded: no direct effect

# Reference: patent US20050118226A1, “Methods for treating ACAT-related diseases” (priority 2003, published 2005)
